From BindingDB's records for doi:10.1016/j.bmcl.2003.11.079 (Millennium Pharmaceuticals, 2004)

Target: Trypsin
Test: Inhibitory concentration against trypsin was determined

NS(=O)(=O)c1ccccc1-c1ccc(C(=O)Nc2ccccc2C(=O)Nc2ccc(Br)cn2)cc1 [2'-Sulfamoyl-biphenyl-4-carboxylic acid [2-(5-bromo-pyridin-2-ylcarbamoyl)-phenyl]-amide]
IC50: > 10 µM
